For one data set, the system named is RV SA11 (G3P[2]) strain. The experiment in a line: In vitro assay of RV replication inhibition (PFA). Particulars: Rotavirus. The class given is cell-based, Rotavirus. As to the method:
(§1) For analysis of effects of different […] on RV replication in vitro, 10,000 MA104 cells, 30,000 Caco-2 cells, and 80,000 HT-29 cells in 100 µL complete DMEM medium were seeded in 96-well plates and cultured at 37°C and 5% CO2 for 24 h. Then the cells were infected with RV Wa or SA11 strains (MOI = 1 (PFU/cell)) for 1 h. After removing the viruses and washing cells two times with DMEM, 100 µL DMEM containing the indicated concentrations of drugs was added to each well, and the plates were incubated at 37°C and 5% CO2. At 24 h p.i., the infected cells and culture medium were collected, frozen/thawed twice, and subjected to centrifugation at 1,000 × g for 3 min at room temperature. Then, the supernatant was subjected to analysis of viral load by PFA. […] Dose-response data (drug concentrations as x-axis and normalized inhibition percentages as y-axis) were fitted to a dose-response inhibition model ([Inhibitor] vs normalized response – Variable slope). […] Model adequacy was validated using goodness-of-fit metrics (R^2 ≥ 0.95), 95% confidence intervals, and residual distribution analysis.
(§2) Wa/SA11 strains were titrated by PFA, which was carried out as described (3) with some modification. Briefly, confluent monolayers of MA104 cells in 24-well tissue culture plates were infected with 100 µL supernatants containing infectious RV particles which were serially diluted (10^1, 10^2, 10^3, and 10^4) with DMEM containing 1 µg/mL trypsin and penicillin (10,000 U/mL)-streptomycin (5 µg/mL) (DMEM-T) for 1 h at 37°C. Then 400 µL agarose overlay (0.8% agarose in 1×DMEM-T) was added and the plates were incubated at 37℃ and 5% CO2 for 5 days. The cells in each well were fixed by 1 mL 4% paraformaldehyde (Sangon Biotech, China) overnight (> 12 h) at room temperature. Then, the paraformaldehyde and agarose were removed and the monolayers were stained with 0.5 ml of a 1% (v/v) crystal violet (Sangon Biotech, China) diluted in distilled water for 10 min at room temperature. Then, the plates were drained and dried, and the plaques were enumerated. As the EDIM strain is not able to grow in cell culture, it was titrated by qPCR analysis as described (4) with EDIM VP6 gene as the target.

The next data set deals with RV Wa (G1P[8]) strain. As to the kind of experiment: In vitro assay of RV replication inhibition (PFA). In kind it is cell-based, Rotavirus. Particulars: Rotavirus. As for the experimental part: as §1, §2
Data set [1] in a line: Cytotoxicity assay (CCK-8). In kind it is cell-based, Rhesus monkey. Particulars: rhesus monkey. As for the experimental part:
(§3) To evaluate the cytotoxicity of different HSP90 inhibitors in vitro, 10,000 MA104 cells, 30,000 Caco-2 cells, and 80,000 HT-29 cells in 100 µL complete DMEM medium were seeded in 96-well plates and cultured at 37°C and 5% CO2 for 24 h to reach about 100% confluence, and a cell-free control was also set. After removing the initial medium, 100 µL of complete DMEM medium containing the indicated concentrations of drugs was added to each well, and the plates were incubated at 37°C and 5% CO2. Twenty-four hours later, the drug-containing medium was replaced with 100 µL fresh complete DMEM medium plus 10 µL 5 mM CCK-8 reagent (Beyotime, China), and OD450 absorbance of each well was detected 3 h later using a microplate reader (Gene Company Limited, China). Relative cell viability rate = OD450 (drug-treated cells − cell-free control) / OD450 (0 µM drug-treated cells − cell-free control).
(§4) The 50% cytotoxic concentration (CC50) values were determined by nonlinear regression (curve fit) analysis in GraphPad Prism 9.0 (GraphPad Software). Dose-response data (drug concentrations as X-axis and normalized cell viability percentages as Y-axis) were fitted to a Dose-response Inhibition model ("[Inhibitor] vs. normalized response-Variable slope"). The curve was constrained to a bottom limit of 0% viability. The CC50 value was automatically calculated as the X-intercept at Y=50%. Model adequacy was validated using goodness-of-fit metrics (R²≥0.95), 95% confidence intervals, and residual distribution analysis. Final CC50 values were derived from three independent biological replicates and reported as mean ± SEM.

Another data set has as its system MA104 cells. As to the kind of experiment: Cytotoxicity assay (CCK-8). The class given is cell-based, Rhesus monkey. Particulars: 24 h. As to the method: as §3, §4
Data set [2] can be described thus: Cytotoxicity assay (CCK-8). Particulars: human. In kind it is cell-based, Human. As to the method: as §3, §4
The subject of another data set is Caco-2 cells. As to the kind of experiment: Cytotoxicity assay (CCK-8). In kind it is cell-based, Human. Particulars: 24 h. As for the experimental part:
as §3, §4

The test system of a further data set is HT-29 cells. The experiment in a line: Cytotoxicity assay (CCK-8). The class given is cell-based, Human. Particulars: 24 h. As for the experimental part:
as §3, §4

The mark [3] stands for this setting: Caco-2, 24 h, read-out: IC50 (Fig 1B plot).
[4] abbreviates: HT-29, 24 h, read-out: IC50 (Fig 1B plot).
Where [5] appears, read: MA104, 24 h, read-out: IC50 (Fig 1B plot).

Where two headings read alike, the source gives them in different places. Some results are limits rather than exact numbers.

As to `C=CCNC1=C2C[C@@H](C)C[C@H](OC)[C@H](O)[C@@H](C)/C=C(\C)[C@H](OC(N)=O)[C@@H](OC)/C=C\C=C(/C)C(=O)NC(=CC1=O)C2=O` [17-AAG, 17-allylamino-17-demethoxygeldanamycin], the IC50 (in general, the concentration needed to halve the response being measured) worked out at 116 ± 33.3 nM in the data set with RV SA11 (G3P[2]) strain (Caco-2, 24 h); 113 nM with RV SA11 (G3P[2]) strain (setting [3]); 54 ± 7.14 nM in the data set with RV SA11 (G3P[2]) strain (HT-29, 24 h); 53.9 nM in the data set on RV SA11 (G3P[2]) strain (setting [4]); 3.52 ± 0.6 nM with RV SA11 (G3P[2]) strain (MA104, 24 h); 3.51 nM in the data set on RV SA11 (G3P[2]) strain (setting [5]). Besides, the concentration for half-maximal inhibition (IC50) in the data set on RV Wa (G1P[8]) strain (Caco-2, 24 h) worked out at 162 ± 34.2 nM; in the data set on RV Wa (G1P[8]) strain (setting [3]), 172 nM; with RV Wa (G1P[8]) strain (HT-29, 24 h), 26.4 ± 20.5 nM; in the data set with RV Wa (G1P[8]) strain (setting [4]) it was 21.9 nM; in the data set on RV Wa (G1P[8]) strain (MA104, 24 h) it was 6.81 ± 2.18 nM; with RV Wa (G1P[8]) strain (setting [5]) it was 6.58 nM. Also, the CC50 – broadly, the concentration that lowers cell viability or growth by half – at 24 h in data set [1] (MA104 cells, 24 h, CCK-8, read-out: CC50) is less than 40000 nM; in data set [2] (Caco-2 cells, CCK-8), less than 40000 nM; in data set [2] (HT-29 cells, 24 h, CCK-8, read-out: CC50) it was less than 40000 nM. Besides, the CC50 turned out to be 23300 ± 6720 nM with MA104 cells (MA104 cells, CCK-8, read-out: CC50); 28600 ± 9730 nM with Caco-2 cells (Caco-2 cells, CCK-8, read-out: CC50); 20700 ± 6030 nM with HT-29 cells (HT-29 cells, CCK-8, read-out: CC50).
With `COC1=C2C[C@@H](C)C[C@H](OC)[C@H](O)[C@@H](C)/C=C(\C)[C@H](OC(N)=O)[C@@H](OC)/C=C\C=C(/C)C(=O)NC(=CC1=O)C2=O` [GA, geldanamycin], the IC50 was found to be 83.8 ± 20.6 nM with RV SA11 (G3P[2]) strain (SA11 strain in Caco-2 cells, MOI = 1, 24 h p.i., PFA, read-out: IC50); 83.7 nM in the data set on RV SA11 (G3P[2]) strain (SA11 strain in Caco-2 cells, representative experiment, 24 h, PFA, read-out: IC50 (Fig 1B plot)); 48.2 ± 34.8 nM in the data set with RV SA11 (G3P[2]) strain (SA11 strain in HT-29 cells, MOI = 1, 24 h p.i., PFA, read-out: IC50); 41.6 nM with RV SA11 (G3P[2]) strain (SA11 strain in HT-29 cells, representative experiment, 24 h, PFA, read-out: IC50 (Fig 1B plot)); 3.01 ± 0.77 nM in the data set with RV SA11 (G3P[2]) strain (SA11 strain in MA104 cells, MOI = 1, 24 h p.i., PFA, read-out: IC50); 2.94 nM in the data set on RV SA11 (G3P[2]) strain (SA11 strain in MA104 cells, representative experiment, 24 h, PFA, read-out: IC50 (Fig 1B plot)). For the same molecule, the 50% inhibitory concentration (IC50) with RV Wa (G1P[8]) strain (Wa strain in Caco-2 cells, MOI = 1, 24 h p.i., PFA, read-out: IC50) was 91.7 ± 6.95 nM; in the data set on RV Wa (G1P[8]) strain (Wa strain in Caco-2 cells, representative experiment, 24 h, PFA, read-out: IC50 (Fig 1B plot)), 92 nM; with RV Wa (G1P[8]) strain (Wa strain in HT-29 cells, MOI = 1, 24 h p.i., PFA, read-out: IC50), 16.5 ± 4.41 nM; with RV Wa (G1P[8]) strain (Wa strain in HT-29 cells, representative experiment, 24 h, PFA, read-out: IC50 (Fig 1B plot)), 16.1 nM; with RV Wa (G1P[8]) strain (Wa strain in MA104 cells, MOI = 1, 24 h p.i., PFA, read-out: IC50) it was 10.5 ± 3.57 nM; in the data set with RV Wa (G1P[8]) strain (Wa strain in MA104 cells, representative experiment, 24 h, PFA, read-out: IC50 (Fig 1B plot)), 10.1 nM. For the same molecule, the CC50 at 24 h in data set [1] (CC50) and in data set [2] (CC50) was less than 40000 nM each time. Also, the half-maximal cytotoxic concentration (CC50) came out at 26600 ± 5550 nM in the data set with MA104 cells (rhesus monkey), 20000 ± 3070 nM in the data set on Caco-2 cells (human) and 29200 ± 5060 nM in the data set on HT-29 cells (human).

Values taken from PMC12817916, “A small-molecule HSP90 inhibitor, NVP-HSP990, alleviates rotavirus infection” (Journal of Virology, 2025).
